Experimental data taken from PubChem BioAssay AID2060500 (Molecular Pharmacology Branch, DTP, NCI, 2025).
Values joined by “and” are separate entries in the source; they are usually repeats but may differ in a detail not shown here. Identical values can stand only once.

System: 596521-263-R-J1-PDC complex spheroids, viability % of control
Assay: Anticancer human tumor 596521-263-R-J1-PDC patient-derived soft tissue sarcoma cell line growth inhibition [GQUAD]
Settings: for viability, T/C: stronger effect = lower value; for IC50: curve of compound
Description: DNA G-quadruplex Stabilizer Agents in Combinations in Complex Spheroids
A high-throughput screen of multi-cell type tumor spheroids was designed to identify active combinations of DNA G-quadruplex stabilizer agents and targeted small molecules. Complex spheroids include a stromal component modeled by human endothelial cells (HUVEC) and fibroblasts modeled by human mesenchymal stem cells (MSCs). The concentration ranges selected for each drug and investigational agent were based upon clinically achievable concentrations if the clinical Cmax of the agent was known.
Compounds. The drugs and investigational agents: pidnarulex (CX-5461; NSC782164), APTO-253 (NSC789042), BRACO-19 (NSC847499), peposertib (NSC802822), ceralasertib (NSC780249), elimusertib (NSC800525), camonsertib (NSC841442), AZD-1390 (NSC803789), olaparib (NSC753686), talazoparib (NSC767125), ART-558 (NSC835418), sotorasib (NSC818433), MRTX-1133 (NSC836407), SN-38 (NSC673596), topotecan (NSC609699), etoposide (NSC141540), doxorubicin (NSC123127), gemcitabine (NSC613327), 5-fluorouracil (NSC19893), paclitaxel (NSC125973), vemurafenib (NSC761431), panobinostat (NSC761190), R-306465 (JNJ-16241199; NSC773264), adavosertib (NSC754352), TP-3654 (NSC805149), carboplatin (NSC241240), KSQ-4279 (NSC840948), and staurosporine (NSC755774) were obtained from the National Cancer Institute (NCI) Developmental Therapeutics Program Chemical Repository (34). The FDA-approved anticancer drug set is available from the NCI Developmental Therapeutics Program. […] The stock solutions were prepared in dimethyl sulfoxide (DMSO, Sigma-Aldrich, St. Louis, MO, cat. D2650) at 800-fold the tested concentration and stored at -70 degrees C prior to their use. All drugs and investigational agents were tested over a range starting from a high concentration at or near the clinical Cmax and decreasing in half-log increments. If the clinical Cmax for an agent had not been determined, the highest concentration tested was 10 microM.
2.3 Cell Culture. All cells were maintained in an incubator at 37 degrees C and 5% CO2 with 95% humidity. The PDC lines were cultured according to standard operating procedures established by the NCI PDMR. All PDCs were thawed and cultured in Matrigel-coated flasks prepared with a working solution of 1X Ham's F-12 nutrient mix, without supplementation (Invitrogen, cat. 11765054), 100 U/mL penicillin-streptomycin (Invitrogen, cat. 15140122), and 2.5% Matrigel (Corning Inc., cat. 354248) for the first three passages. The 857933-349-R-J2-PDC line was cultured in 6C/Colon 1B media, which includes advanced DMEM/F-12 (Thermo Fisher Scientific, cat. 12634028), 10 mM HEPES (Thermo Fisher Scientific, cat. 15630080), 1X GlutaMAX supplement (Thermo Fisher Scientific, cat. 35050061), 0.1 mg/mL primocin (InvivoGen, cat. ant-pm-2), 10% defined fetal bovine serum, heat inactivated (HyClone Laboratories Inc., cat. SH30070.03HI), 50% L-WRN conditioned media (ATCC, cat. CRL-3276), 1.25 mM N-Acetyl-L-cysteine (Sigma-Aldrich, cat. A9165), 10 mM nicotinamide (Sigma-Aldrich, cat. N0636), 1X B-27 supplement (Thermo Fisher Scientific, cat. 17504044), 1X N-2 supplement (Thermo Fisher Scientific, cat. 17502048), 10 microM Y-27632 dihydrochloride (Tocris Bioscience, cat. 1254), and 50 ng/mL human EGF recombinant protein (Thermo Fisher Scientific, cat. PHG0311). The 485176-168-R4-J1-PDC line was cultured in Panc media, which includes all 6C/Colon 1B media components plus 100 ng/mL human FGF-10 (Thermo Fisher Scientific, cat. 100-26), 500 nM SB-431542 (Selleckchem, cat. S1067), and gastrin (Tocris, cat. 3006).
[…]
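Note: spheroids exposed to drugs for 7 days before viability reading.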

SMILES	viability, T/C (compound 0.0316 µM)	viability, T/C (compound 0.1 µM)	viability, T/C (compound 0.316 µM)	viability, T/C (compound 1 µM)	viability, T/C (compound 3.16 µM)	viability, T/C (compound 10 µM)	IC50
C#Cc1c(F)ccc2cc(O)cc(-c3ncc4c(N5CC6CCC(C5)N6)nc(OCC56CCCN5CC(F)C6)nc4c3F)c12 (stereo not given)	87.5% and 92.6% and 98.3%	94.6% and 94.2% and 103%	92.4% and 101% and 107%	89.7% and 67.3% and 92.5%	124% and 22.8% and 104%	75% and 22.5% and 78.4%	> 10000 nM and 1560 nM
C=CC(=O)N1CCN(c2nc(=O)n(-c3c(C)ccnc3C(C)C)c3nc(-c4c(O)cccc4F)c(F)cc23)C(C)C1 (stereo not given)	107% and 105% and 114%	92.7% and 91.9% and 95.5%	96.9% and 101% and 108%	114% and 120% and 118%	96.2% and 97% and 113%	73.2% and 66.5% and 84.6%	> 10000 nM
C=CCn1c(=O)c2cnc(Nc3ccc(N4CCN(C)CC4)cc3)nc2n1-c1cccc(C(C)(C)O)n1	99.8% and 97.8% and 103%	92% and 80.4% and 93.1%	96.9% and 51.6% and 61.3%	92.4% and 41% and 41.4%	67.7% and 34.9% and 37%	33.8% and 38.8% and 32.9%	–
CC(=O)O[C@H]1C(=O)[C@@]2(C)[C@H]([C@H](OC(=O)c3ccccc3)[C@]3(O)C[C@H](OC(=O)[C@H](O)[C@@H](NC(=O)c4ccccc4)c4ccccc4)C(C)=C1C3(C)C)[C@]1(OC(C)=O)CO[C@@H]1C[C@@H]2O	76.3% and 38.3% and 43.2%	42.8% and 28.9% and 29%	10.7% and 26.6% and 31.2%	–	–	–	78.3 nM and < 31.6 nM
CC(C)(O)C1CCC(Nc2ccc3ncc(-c4cccc(C(F)(F)F)c4)n3n2)CC1 (stereo not given)	106% and 99.4% and 95.7%	98.4% and 97.7% and 91.8%	103% and 93.5% and 85.9%	97.1% and 55.2% and 69.5%	108% and 10.6% and 16.7%	84% and 18.1% and 15.5%	> 10000 nM and 1160 nM and 1540 nM
CC(C)n1c(=O)n(C)c2cnc3cc(F)c(-c4ccc(OCCCN5CCCCC5)nc4)cc3c21	95.5% and 105% and 103%	92.9% and 102% and 101%	82.4% and 94.7% and 101%	91.1% and 106% and 92%	81.2% and 87.7% and 86.1%	61.1% and 71.2% and 64.3%	> 10000 nM
CC1COCCN1c1cc(-c2ccnn2C)c2ccnc(-c3ccn[nH]3)c2n1 (stereo not given)	78.3% and 73.2% and 70.2%	59.2% and 55.7% and 62.7%	57.2% and 47.1% and 50.2%	43.9% and 42.6% and 44.5%	30.3% and 34% and 31.6%	24.4% (2×) and 23.9%	452 nM and 275 nM and 412 nM
